Test results published in patent US20240010640A1, “ANTAGONISTS OF THE MUSCARINIC ACETYLCHOLINE RECEPTOR M4” (Vanderbilt University, priority 2020, published 2024).

Molecular target: T1, Human M4 (Homo sapiens, UniProt P08173)
T1 construct: Human or rat M4 cDNA, along with the chimeric G protein Gqi5, were transfected into Chinese hamster ovary (CHO-K1) cells; expressed in transfected cells; host or cells: CHO-K1 (Chinese hamster ovary, ATCC), stably expressing M4 and Gqi5
T1 sequence (P08173 1-479): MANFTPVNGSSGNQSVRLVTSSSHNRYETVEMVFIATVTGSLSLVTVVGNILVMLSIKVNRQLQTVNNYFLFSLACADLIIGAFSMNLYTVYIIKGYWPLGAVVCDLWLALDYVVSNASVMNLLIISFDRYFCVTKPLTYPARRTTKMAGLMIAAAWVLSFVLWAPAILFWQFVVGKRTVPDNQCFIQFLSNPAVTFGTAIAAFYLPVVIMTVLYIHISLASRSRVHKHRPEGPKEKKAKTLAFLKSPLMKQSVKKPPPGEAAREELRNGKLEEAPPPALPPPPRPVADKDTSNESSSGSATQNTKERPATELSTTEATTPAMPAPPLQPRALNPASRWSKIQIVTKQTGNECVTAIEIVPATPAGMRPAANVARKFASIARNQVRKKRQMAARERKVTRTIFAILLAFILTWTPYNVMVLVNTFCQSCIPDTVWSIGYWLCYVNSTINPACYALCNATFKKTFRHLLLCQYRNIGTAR
Experiment: mAChR M4 cell-based functional assay (calcium flux, antagonist mode)
Settings: for IC50: Human M4/Gqi5 CHO-K1 cells, decrease of acetylcholine response; for Emin (% ACh maximum at 30 μM): Human M4
Experimental: Human or rat M4 cDNA, along with the chimeric G protein Gqi5, were transfected into Chinese hamster ovary (CHO-K1) cells purchased from the American Type Culture Collection using Lipofectamine2000. M4/Gqi5/CHO cells were grown in Ham's F-12 medium containing 10% heat-inactivated fetal bovine serum (FBS), 20 mM HEPES, 500 μg/mL G418 sulfate, and 200 μg/mL Hygromycin B.
For high throughput measurement of agonist-evoked increases in intracellular calcium, CHO-K1 cells stably expressing muscarinic receptors were plated in growth medium lacking G418 and hygromycin at 15,000 cells/20 μL/well in Greiner 384-well black-walled, tissue culture (TC)-treated, clear-bottom plates (VWR). Cells were incubated overnight at 37° C. and 5% CO2. The next day, cells were washed using an ELX 405 (BioTek) with assay buffer; the final volume was then aspirated to 20 μL. Next, 20 μL of a 2.3 μM stock of Fluo-4/acetoxymethyl ester (Invitrogen, Carlsbad, CA), prepared as a 2.3 mM stock in DMSO and mixed in a 1:1 ratio with 10% (w/v) Pluronic F-127 and diluted in assay buffer, was added to the wells and the cell plates were incubated for 50 min at 37° C. and 5% CO2. Dye was removed by washing with the ELX 405 and the final volume was aspirated to 20 μL. Compound master plates were formatted in a 10 point concentration-response curve (CRC) format (1:3 dilutions) in 100% DMSO with a starting concentration of 10 or 1 mM using a BRAVO liquid handler (Agilent). Test compound CRCs were then transferred to daughter plates (240 nL) using the Echo acoustic plate reformatter (Labcyte, Sunnyvale, CA) and then diluted into assay buffer (40 μL) to a 2× stock using a Thermo Fisher Combi (Thermo Fisher Scientific, Waltham, MA).
Calcium flux was measured using the Functional Drug Screening System (FDSS) 6000 or 7000 (Hamamatsu Corporation, Tokyo, Japan) as an increase in the fluorescent static ratio. Compounds were applied to cells (20 μL, 2×) using the automated system of the FDSS at 2 seconds into the protocol and the data were collected at 1 Hz. At 143 s, 10 μL of an EC20 concentration of the muscarinic receptor agonist acetylcholine was added (5×), followed by the addition of 12 μL of an […] concentration of acetylcholine at the 268 s time point (5×). Agonist activity was analyzed as a concentration-dependent increase in calcium mobilization upon compound addition. Positive allosteric modulator activity was analyzed as a concentration-dependent increase in the EC20 acetylcholine response. Antagonist activity was analyzed as a concentration-dependent decrease in the EC80 acetylcholine response; for the purposes of the tables herein, an IC50 (inhibitory concentration 50) was calculated as a concentration-dependent decrease of the response elicited by an […] concentration of acetylcholine. Concentration-response curves were generated using a four-parameter logistical equation in XLFit curve fitting software (IDBS, Bridgewater, NJ) for Excel (Microsoft, Redmond, WA) or Prism (GraphPad Software, Inc., San Diego, CA) or the Dotmatics software platform (Dotmatics, Bishop's Stortford, UK).
Compounds were synthesized as described above. Activity (IC50 and Emin) was determined in the mAChR M4 cell-based functional assay as described above and the data are shown in Table 1.

| SMILES | IC50 [µM] | Emin (% ACh maximum at 30 μM) [%] |
| --- | --- | --- |
| [2H]C([2H])(C1CCOCC1)N1C[C@H]2C[C@H](Nc3ccc(-c4ccn(C)c(=O)c4)nn3)C[C@H]2C1 [A1, 1-methyl-4-(6-(((3aR,5s,6aS)-2-((tetrahydro-2H-pyran-4-yl)methyl-d2)octahydrocyclopenta[c]pyrrol-5-yl)amino)pyridazin-3-yl)pyridin-2(1H)-one] | 0.081 | 5 |
| [2H]C([2H])(C1CCOCC1)N1C[C@H]2C[C@H](Nc3ccc(-c4ccc(=O)n(C)c4)nn3)C[C@H]2C1 [A2, 1-methyl-5-(6-(((3aR,5s,6aS)-2-((tetrahydro-2H-pyran-4-yl)methyl-d2)octahydrocyclopenta[c]pyrrol-5-yl)amino)pyridazin-3-yl)pyridin-2(1H)-one] | 0.034 | 4 |
| [2H]C([2H])(C1CCOCC1)N1C[C@H]2C[C@H](Nc3ccc(-c4cccn(C)c4=O)nn3)C[C@H]2C1 [A3, 1-methyl-3-(6-(((3aR,5s,6aS)-2-((tetrahydro-2H-pyran-4-yl)methyl-d2)octahydrocyclopenta[c]pyrrol-5-yl)amino)pyridazin-3-yl)pyridin-2(1H)-one] | 0.0059 | 4 |
| Cn1cccc(-c2ccc(N[C@H]3C[C@@H]4CN(CC5CCOCC5)C[C@@H]4C3)nn2)c1=O [A4, 1-methyl-3-(6-(((3aR,5s,6aS)-2-((tetrahydro-2H-pyran-4-yl)methyl)octahydrocyclopenta[c]pyrrol-5-yl)amino)pyridazin-3-yl)pyridin-2(1H)-one] | 0.0155 | 5 |
| O=c1ccc(-c2ccc(N[C@H]3C[C@@H]4CN(CC5CCOCC5)C[C@@H]4C3)nn2)cn1C(F)F [A5, 1-(difluoromethyl)-5-(6-(((3aR,5s,6aS)-2-((tetrahydro-2H-pyran-4-yl)methyl)octahydrocyclopenta[c]pyrrol-5-yl)amino)pyridazin-3-yl)pyridin-2(1H)-one] | 0.0038 | 4 |
| O=c1cc(-c2ccc(N[C@H]3C[C@@H]4CN(CC5CCOCC5)C[C@@H]4C3)nn2)ccn1C(F)F [A6, 1-(difluoromethyl)-4-(6-(((3aR,5s,6aS)-2-((tetrahydro-2H-pyran-4-yl)methyl)octahydrocyclopenta[c]pyrrol-5-yl)amino)pyridazin-3-yl)pyridin-2(1H)-one] | 0.0059 | 9 |
| Cn1cc(-c2ccc(N[C@H]3C[C@@H]4CN(CC5CCOCC5)C[C@@H]4C3)nn2)cnc1=O [A7, 1-methyl-5-(6-(((3aR,5s,6aS)-2-((tetrahydro-2H-pyran-4-yl)methyl)octahydrocyclopenta[c]pyrrol-5-yl)amino)pyridazin-3-yl)pyrimidin-2(1H)-one] | 0.514 | 7 |
| Cc1cc(-c2ccc(N[C@H]3C[C@@H]4CN(CC5CCOCC5)C[C@@H]4C3)nn2)c(=O)[nH]n1 [A8, 6′-methyl-6-(((3aR,5s,6aS)-2-((tetrahydro-2H-pyran-4-yl)methyl)octahydrocyclopenta[c]pyrrol-5-yl)amino)-[3,4′-bipyridazin]-3′(2′H)-one] | 0.136 | 8 |
| Cn1cc(C(F)(F)F)cc(-c2ccc(N[C@H]3C[C@@H]4CN(CC5CCOCC5)C[C@@H]4C3)nn2)c1=O [A9, 1-methyl-3-(6-(((3aR,5s,6aS)-2-((tetrahydro-2H-pyran-4-yl)methyl)octahydrocyclopenta[c]pyrrol-5-yl)amino)pyridazin-3-yl)-5-(trifluoromethyl)pyridin-2(1H)-one] | 0.0274 | 4 |
| Cn1cc(-c2ccc(N[C@H]3C[C@@H]4CN(CC5CCCOC5)C[C@@H]4C3)nn2)ccc1=O (stereo partly drawn) [A10, 1-methyl-5-(6-(((3aR,5s,6aS)-2-((tetrahydro-2H-pyran-3-yl)methyl)octahydrocyclopenta[c]pyrrol-5-yl)amino)pyridazin-3-yl)pyridin-2(1H)-one] | 0.129 | 4 |
| Cn1cc(-c2ccc(N[C@H]3C[C@@H]4CN(CC5CCCCC5)C[C@@H]4C3)nn2)ccc1=O [A11, 5-(6-(((3aR,5s,6aS)-2-(cyclohexylmethyl)octahydrocyclopenta[c]pyrrol-5-yl)amino)pyridazin-3-yl)-1-methylpyridin-2(1H)-one] | 0.0035 | 3 |
| Cn1cc(-c2ccc(N[C@H]3C[C@@H]4CN(Cc5ccccn5)C[C@@H]4C3)nn2)ccc1=O [A12, 1-methyl-5-(6-(((3aR,5s,6aS)-2-(pyridin-2-ylmethyl)octahydrocyclopenta[c]pyrrol-5-yl)amino)pyridazin-3-yl)pyridin-2(1H)-one] | 0.762 | 9 |
| Cn1cc(-c2ccc(N[C@H]3C[C@@H]4CN(CCC(C)(C)C)C[C@@H]4C3)nn2)ccc1=O [A13, 5-(6-(((3aR,5s,6aS)-2-(3,3-dimethylbutyl)octahydrocyclopenta[c]pyrrol-5-yl)amino)pyridazin-3-yl)-1-methylpyridin-2(1H)-one] | 0.001 | 3 |
| [2H]C([2H])(C1CCOCC1)N1C[C@H]2C[C@H](Nc3ccc(-c4ccc(=O)n(CC5CC5)c4)nn3)C[C@H]2C1 [A14, 1-(cyclopropylmethyl)-5-(6-(((3aR,5s,6aS)-2-((tetrahydro-2H-pyran-4-yl)methyl-d2)octahydrocyclopenta[c]pyrrol-5-yl)amino)pyridazin-3-yl)pyridin-2(1H)-one] | 0.0288 | 3 |
| O=c1ccc(-c2ccc(N[C@H]3C[C@@H]4CN(CC5CCOCC5)C[C@@H]4C3)nn2)cn1CC1CC1 [A15, 1-(cyclopropylmethyl)-5-(6-(((3aR,5s,6aS)-2-((tetrahydro-2H-pyran-4-yl)methyl)octahydrocyclopenta[c]pyrrol-5-yl)amino)pyridazin-3-yl)pyridin-2(1H)-one] | 0.0196 | 4 |
| Cc1cc(-c2ccc(N[C@H]3C[C@@H]4CN(CC5CCOCC5)C[C@@H]4C3)nn2)cn(C)c1=O [A16, 1,3-dimethyl-5-(6-(((3aR,5s,6aS)-2-((tetrahydro-2H-pyran-4-yl)methyl)octahydrocyclopenta[c]pyrrol-5-yl)amino)pyridazin-3-yl)pyridin-2(1H)-one] | 0.0019 | 4 |
| Cn1cc(-c2ccc(N[C@H]3C[C@@H]4CN(CC5CCOCC5)C[C@@H]4C3)nn2)cc(F)c1=O [A17, 3-fluoro-1-methyl-5-(6-(((3aR,5s,6aS)-2-((tetrahydro-2H-pyran-4-yl)methyl)octahydrocyclopenta[c]pyrrol-5-yl)amino)pyridazin-3-yl)pyridin-2(1H)-one] | 0.013 | 3 |
